Patent US20150158891A1, “STABLE PHARMACEUTICAL COMPOSITION FOR OPTIMIZED DELIVERY OF AN HIV ATTACHMENT INHIBITOR” (Bristol-Myers Squibb Company, priority 2008, published 2015)

Tested on: Porcine alkaline phosphatase
Assay: Conversion of prodrug to parent compound by alkaline phosphatase in pH 7.0 Tris-HCl buffer solution
Assay type: in vitro ADME
Protocol: Phosphate ester prodrug was dissolved in pH 7.0 Tris-HCl buffer to a concentration of 0.72 mg/mL. Porcine alkaline phosphatase (1 mg/mL) was added to an aliquot of the solution. 2.5 hours after enzyme addition a sample was analyzed. The results in the Table below confirm that alkaline phosphatase is active in pH 7.0 Tris-HCl buffer and rapidly hydrolyzes the phosphate ester prodrug to the parent compound.

Work on `COc1cnc(-n2cnc(C)n2)c2c1c(C(=O)C(=O)N1CCN(C(=O)c3ccccc3)CC1)cn2COP(=O)(O)O` [Prodrug, 1-benzoyl-4-[2-[4-methoxy-7-(3-methyl-1H-1,2,4-triazol-1-yl)-1-[(phosphonooxy)methyl]-1H-pyrrolo[2,3-c]pyridin-3-yl]-1,2-dioxoethyl]-piperazine] yielded a Prodrug peak area (2.5 hr sample of solution containing enzyme (1 mg/mL)) of 0.0% and a Prodrug peak area (initial sample of prodrug solution (no enzyme), 0.72 mg/mL, percent of total prodrug+parent peak area) of 99.9%.
